In one assay the test system is Vero. Description: Compound was evaluated for its toxicity by […] assay in vero cells. The format is functional, cell-based. The conditions noted are these: Chlorocebus sabaeus.
For a further assay, the system named is Human alphaherpesvirus 1. The assay is described as follows: Antiviral activity against Herpes simplex virus type-1. Type of assay: functional, organism-based.
The nature of assay [1]: Compound was evaluated for its toxicity by […] assay in PBM. Type of assay: functional, Homo sapiens.
A further assay deals with Hepatitis B virus. Description: Antiviral activity against Hepatitis-B virus 2.2.15(HBV). The format is functional, organism-based. To be noted: HepG2 2.2.15.
A further assay concerns Human alphaherpesvirus 2. Description: Antiviral activity against Herpes simplex virus type-2. The format is functional, organism-based.
The next assay relates to CCRF-CEM. Description: Compound was evaluated for its toxicity by […] assay in CEM. The format is functional, cell-based. The conditions noted are these: Homo sapiens.
Assay [2] in a line: Antiviral activity against human immunodeficiency virus type-1 (HIV-1) in PBM cells. To be noted: PBMC. The format is functional, cell-based.

Some results are limits rather than exact numbers.

IC50 and EC50 data for seven molecules are collected here from ChEMBL document CHEMBL1130219, “Structure-activity relationships of 2'-deoxy-2',2'-difluoro-L-erythro-pentofuranosyl nucleosides” (J Med Chem, 1997).

In general, IC50 refers to the concentration that gives 50% inhibition. Lower therefore signals greater potency in that assay. The term EC50 denotes the concentration giving half of the maximal effect. Read a low EC50 as greater potency.

`Nc1nc(=O)n([C@@H]2O[C@@H](CO)[C@H](O)C2(F)F)cc1I`: the IC50 (in the assay on Vero; in assay [1]; with CCRF-CEM) was > 100 µM in each case. In addition, the concentration for a half-maximal effect (EC50) in the assay on Human alphaherpesvirus 1 is > 100 µM; in the assay with Hepatitis B virus it was > 10 µM; with Human alphaherpesvirus 2, > 100 µM; in assay [2] it was > 100 µM.

For the molecule `Nc1ncnc2c1ncn2[C@H]1O[C@@H](CO)[C@H](O)C1(F)F`, the IC50 (in the assay on Vero; in assay [1]; in the assay with CCRF-CEM) was > 100 µM throughout. Also, the EC50 is > 100 µM with Human alphaherpesvirus 1, > 20 µM in the assay on Hepatitis B virus, > 100 µM in the assay with Human alphaherpesvirus 2 and 3.4 µM in assay [2].

For the molecule `O=c1[nH]c(=O)n([C@H]2O[C@@H](CO)[C@H](O)C2(F)F)cc1F`, the half-inhibitory concentration (IC50) (with Vero; in assay [1]; with CCRF-CEM) was > 100 µM each time. For the same molecule, the EC50 in the assay on Human alphaherpesvirus 1 is > 100 µM; with Hepatitis B virus, > 10 µM; with Human alphaherpesvirus 2, > 100 µM; in assay [2] it was > 100 µM.

As to `Cc1cn([C@H]2C[C@H](N=[N+]=[N-])[C@@H](CO)O2)c(=O)[nH]c1=O` [ZIDOVUDINE], the IC50 with Vero is 29 µM; in assay [1], > 100 µM; in the assay with CCRF-CEM it was 13 µM. The EC50 with Human alphaherpesvirus 1 was > 100 µM; in the assay with Hepatitis B virus, > 10 µM; in the assay on Human alphaherpesvirus 2, > 100 µM; in assay [2], 0.004 µM.

`O=c1[nH]c(=O)n([C@@H]2O[C@@H](CO)[C@H](O)C2(F)F)cc1F`: the IC50 in the assay on Vero was 100 µM; in assay [1], > 100 µM; in the assay with CCRF-CEM, > 100 µM. Also, the EC50 with Human alphaherpesvirus 1 was > 100 µM; with Hepatitis B virus, > 10 µM; in the assay with Human alphaherpesvirus 2 it was > 100 µM; in assay [2], > 100 µM.

For the molecule `Nc1ncnc2c1ncn2[C@@H]1O[C@@H](CO)[C@H](O)C1(F)F`, the IC50 (with Vero; in assay [1]; in the assay with CCRF-CEM) was > 100 µM throughout. Moreover, the EC50 in the assay on Human alphaherpesvirus 1 was > 100 µM; with Hepatitis B virus, > 20 µM; in the assay on Human alphaherpesvirus 2, > 100 µM; in assay [2] it was > 100 µM.

For the molecule `Nc1nc(=O)n([C@H]2O[C@@H](CO)[C@H](O)C2(F)F)cc1I`, the half-maximal inhibitory concentration (IC50) (in the assay with Vero; in assay [1]; in the assay on CCRF-CEM) was > 100 µM each time. The EC50 was > 100 µM with Human alphaherpesvirus 1, > 10 µM in the assay with Hepatitis B virus, > 100 µM with Human alphaherpesvirus 2 and > 100 µM in assay [2].
